Laboratory results reported in US11938203B2, “Oil-dispersed composition and cosmetics for lip care using the same” (AMOREPACIFIC CORPORATION, priority 2021, dated 2024).

Assay: Compatibility between water-soluble effective raw materials and oils
Type: physicochemical
From the text: Compatibility Between Water-Soluble Effective Raw Materials and Oils

[1] = ester oil and silicone-based oil that do not contain a glyceryl group or an isostearyl group
[2] = oil: Polyglyceryl-2 Triisostearate

Ceramides
Compatibility with oil (in words) [1]: poor compatibility | Compatibility with oil (oil: Diisostearyl Malate): ◯ | Compatibility with oil [2]: ◯

COc1cc(/C=C/C(=O)Oc2cc(C)ccc2C(C)C)cc(OC)c1OC [Thymol trimethoxy cinnamate]
Compatibility with oil (in words) (diisostearyl malate oil (diester-based oil), FIG. 1): very good compatibility | Compatibility with oil (in words) [1]: excellent compatibility | Compatibility with oil (in words) (hydrocarbon oil-based oil or alcohol-based oil): poor compatibility | Compatibility with oil (oil: Diisostearyl Malate): ◯ | Compatibility with oil (oil: Diphenylsiloxy Phenyl Trimethicone): ◯ | Compatibility with oil (oil: Isononyl isononanoate): ◯ | Compatibility with oil (oil: Octyldodecyl neopentanoate): ◯ | Compatibility with oil [2]: ◯ | Compatibility with oil (in words) (pentaerythrityl tetraisostearate oil, FIG. 2): very poor compatibility
